Series [1] deals with histamine release induced by anti-IgE. Particulars: cited from earlier work.
For series [2], the system named is PQ-treated Neuro-2a cells. Briefly: PQ-treated Neuro-2a cell viability (FDA assay). The class given is cell-based, mouse. Particulars: compound 1 and 10 µM, PQ 500 µM, 24 h. The protocol:
A stock solution of the fluorescein diacetate (FDA) (Sigma-Aldrich, St. Louis, MO, USA) in DMSO (1 mg/mL) was prepared. The cells (1 × 10^4 cells/well) were seeded in black 96-well plates before testing. After incubation of the cells with compounds and PQ during 24 h, FDA solution (50 μg/mL) was added to each well and the plate was incubated in the dark at 37 °C for 15 min. Cells were washed with phosphate buffer saline (PBS) (BioloT, S.-Peterburg, Russia) and fluorescence was measured with a Fluoroskan Ascent plate reader (Thermo Labsystems, Helsinki, Finland) at λex = 485 nm and λem = 518 nm. All manipulations with fluorescent probes were carried out in a darkened room. Cell viability was expressed as the percent of control.
The cells (1 × 10^4 cells/well of a 96-well plate) were treated with studied compounds at concentrations of 1 and 10 µM for 1 h and then 500 µM of PQ (Sigma-Aldrich, St. Louis, MO, USA) was added to the neuroblastoma cells. Cells incubated without PQ and compounds and with PQ alone were used as positive and negative controls, respectively. The viability of cells was measured after 24 h using MTT and FDA methods. The results were presented as percent of positive control data.

Series [3] can be described thus: Cytotoxicity toward Neuro-2a cells (MTT assay). The class given is cell-based, mouse. Particulars: mouse, Neuro-2a neuroblastoma cells, 24 h. The protocol: The cells of mouse neuroblastoma cell line Neuro-2a (ATCC® CCL-131™; American Type Culture Collection, Manassas, VA, USA) were cultured in Dulbecco’s modified Eagle’s medium (DMEM) containing 10% fetal bovine serum (Biolot, St. Petersburg, Russia) and 1% penicillin/streptomycin (Biolot, St. Petersburg, Russia) at 37 °C in a humidified atmosphere with 5% (v/v) CO2. Initially, cells were incubated in cultural flasks until sub-confluent (~80%). For testing, Neuro-2a cells were seeded in 96- or 6-well plates and experiments were started after 24 h.
The cells (1 × 10^4 cells/well of a 96-well plate) were incubated with different concentrations of studied compounds during 24 h. After that, cell viability was determined by the MTT (3-(4,5-dimethylthiazol-2-yl)-2,5-diphenyltetrazolium bromide) method according to the manufacturer’s instructions (Sigma-Aldrich, St. Louis, MO, USA). Absorbance of the converted formazan was measured using a Multiskan FC microplate photometer (Thermo Scientific, Waltham, MA, USA) at λ = 570 nm. The results were presented as percent of control data, and concentration of cell viability inhibition on 50% (IC50) was calculated.
In general terms: Formazan colour is commonly taken as a measure of viable cells.

Series [4] is described as follows: DPPH radical scavenging assay (cell-free). The note with it: 30 min, MeOH. In short, it runs like this: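 Methanolic compound solutions (10 and 100 µM final) mixed with DPPH in MeOH (7.5 × 10^−3 M stock), left 30 min, absorbance read at 520 nm. EC50 was the concentration scavenging 50% of the radical; ascorbic acid as positive control.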
(DPPH is a stable violet radical that fades when it is reduced.)

Series [5] deals with ROS level in PQ-treated Neuro-2a cells. The experiment in a line: ROS level analysis in PQ-treated Neuro-2a cells (H2DCFDA). It counts as cell-based, mouse. Particulars: tested at 1 and 10 μM, PQ 500 µM 1 h. The protocol: The cells (1 × 10^4 cells/well of a 96-well plate) were incubated with compound solutions (1 and 10 µM) during 1 h. Then, PQ was added to cell suspension to a resulting concentration of 500 µM for incubation during 1 h. Cells incubated without PQ and compounds and with PQ alone were used as positive and negative controls, respectively. The 20 µL of 2,7-dichlorodihydrofluorescein diacetate solution (H2DCFDA, Molecular Probes, Eugene, OR, USA) was added to each well (10 µM, final concentration) and the plate was incubated for an additional 10 min at 37 °C. The intensity of dichlorofluorescin fluorescence was measured with a PHERAstar FS plate reader (BMG Labtech, Ortenberg, Germany) at λex = 485 nm and λem = 518 nm. The data were processed by MARS Data Analysis v. 3.01R2 (BMG Labtech, Ortenberg, Germany). The results were presented as percent of positive control data.

Series [6] relates to PQ-treated Neuro-2a cells. Briefly: Propidium iodide straining of PQ-treated Neuro-2a cells (membrane permeability). It counts as cell-based, mouse. Particulars: compound 10 μM pre-incubation, PQ-treated cells, 24 h. On the procedure: The cells (1 × 10^4 cells/well) were seeded in black 96-well plates before testing. After incubation of the cells with compounds and PQ during 24 h, PI solution (10 μg/mL) was added to each well and the plate was incubated in the dark at 37 °C for 10 min. Cells were washed with phosphate buffer saline (PBS) (BioloT, St.Peterburg, Russia) and fluorescence was measured with a Fluoroskan Ascent plate reader (Thermo Labsystems, Helsinki, Finland) at […]. All manipulations with fluorescent probes were carried out in a darkened room. The results were presented as percent of positive control data.

Series [7] deals with PQ-treated Neuro-2a cells. The experiment in a line: Neurite outgrowth estimation in PQ-treated Neuro-2a cells. The class given is cell-based, mouse. Particulars: compound 10 µM 1 h, then PQ 500 µM 24 h. On the procedure: Neurite outgrowth was studied as described by Li et al.. Neuro-2a cells were seeded in 6-well plates (1.6 × 10^5 cells/well) in DMEM medium containing 10% fetal bovine serum (Biolot, St. Peterburg, Russia) and 1% penicillin/streptomycin (Invitrogen, Carlsbad, CA, USA). The next day, this growth media was changed with serum-free DMEM media containing 1% penicillin/streptomycin, and cells were treated with studied compounds at a concentration of 10 µM for 1 h. After that, PQ (500 µM) was added and cells were incubated during 24 h. Cells incubated without PQ and compounds and with PQ alone were used as positive and negative controls, respectively.
For each well, approximately 10 images were acquired randomly by scanning the wells from left to right and top to bottom using the AxioImager A1 microscope (CarlZeiss, Oberkochen, Germany). A total of ten random fields (near 350 cells in each) for each experimental group were scored for neurite outgrowth. The number of neurite-bearing cells and lengths of the individual neurites for each cell were measured using the AxioVision 4.7.1 software (CarlZeiss, Oberkochen, Germany). Length was defined as the straight-line distance from the tip of the neurite to the junction between the cell body and neurite base. In the case of branched neurites, the length of the longest branch was measured from the tip of the neurite to the cell body. In each experimental group, the average length of neurites was calculated, as well as the average number of neurites per one cell.

The text below walks through data of publication PMC7698842, “Lanostane Triterpenoid Metabolites from a Penares sp. Marine Sponge Protect Neuro-2a Cells against Paraquat Neurotoxicity” (Molecules, 2020).

One may read the IC50 as the point on the concentration scale where inhibition reaches its midpoint. Lower therefore signals greater potency in that assay. The EC50 is the concentration giving half of the maximal effect. High values mean a less potent agent, low ones a more potent agent. For the compound `CC(C)=CCC[C@@H](C)[C@H]1CC[C@@]2(C(=O)O)C3=C(CC[C@]12C)[C@@]1(C)CCC(=O)C(C)(C)[C@@H]1CC3` [Compound 4, penasterone], the “inhibition of histamine release induced by anti-IgE” value in series [1] is recorded as “inhibitors of histamine release”. The “effect on PQ-treated cell viability (FDA assay)” value in series [2] was “did not show any effect”. Besides, in series [3] (Neuro-2a cell viability, 10 μM, read-out: Cytotoxicity (MTT Assay) % of Control at 10 μM), the activity at 24 h, 10 µM is 95.3 ± 2.7%. The IC50 at 24 h in series [3] (Neuro-2a cells) was more than 100 µM. Further, the EC50 in series [4] was more than 100 µM. Also, the “concentrations at which ROS content in PQ-treated cells was reduced” value in series [5] is “effective at concentrations of 1 and 10 μM”. Further, the “decrease of fluorescence of PI-straining cells” value in series [6] is reported as 17%. In addition, in series [7], the “increase in the average number of neurites per cell” value was 27% and the “increase of neurites-bearing cell amount compared to PQ-treated control” value is recorded as 134%.
